Active and inactive are the calls of the source.
Columns and labels:
Paired box protein Pax-8 = Paired box protein Pax-8 (Homo sapiens, UniProt Q06710); assay: PAX8 transcriptional activity inhibition in RMG-I – RMG-I cells, luciferase, cherry-pick, dose response (AID 687027); format: functional, cell-based;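 note: luciferase reporter driven by Pax8 target thyroperoxidase promoter measured by SteadyGlo luminescence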
[1] = viability of uninfected HEp-2 cells – cell-based, HTS, cytotoxicity control for RSV inhibitor project, dose response (AID 2410); format: functional; settings: human respiratory syncytial virus
[2] = molecular target: T1, Heat shock factor protein 1 (Mus musculus, UniProt P38532); assay: enhancement of HSF1-driven luciferase signal – cell-based, NIH3T3, luminescence, dose retest, confirmation (AID 435004); format: functional;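 note: stress induced by proteasome inhibitor MG132 added 30 min after compound; luciferase reporter driven by HSF1 response element in NIH3T3 cells; actives raise luminescence as potentiators of the MG132 stress response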
T1 sequence (P38532 whole entry): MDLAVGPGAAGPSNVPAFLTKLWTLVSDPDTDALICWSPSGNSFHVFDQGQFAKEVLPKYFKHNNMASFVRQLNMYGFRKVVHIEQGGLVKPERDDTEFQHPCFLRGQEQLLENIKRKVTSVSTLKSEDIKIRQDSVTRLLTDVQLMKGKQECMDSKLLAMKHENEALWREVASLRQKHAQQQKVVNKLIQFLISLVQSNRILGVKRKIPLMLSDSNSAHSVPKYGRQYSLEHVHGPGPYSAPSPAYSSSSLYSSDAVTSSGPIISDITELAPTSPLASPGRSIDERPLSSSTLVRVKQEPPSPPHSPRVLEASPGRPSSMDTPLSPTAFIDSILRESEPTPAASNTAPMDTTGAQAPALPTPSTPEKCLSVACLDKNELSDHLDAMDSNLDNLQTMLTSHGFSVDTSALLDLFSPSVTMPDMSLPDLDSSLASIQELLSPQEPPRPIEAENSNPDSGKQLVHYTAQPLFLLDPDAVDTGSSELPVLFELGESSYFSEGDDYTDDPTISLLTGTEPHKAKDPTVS

Cytochrome P450 2C9 = Cytochrome P450 2C9 (Homo sapiens, UniProt P11712)
Chain of Cytochrome P450 2C9 (P11712 whole entry): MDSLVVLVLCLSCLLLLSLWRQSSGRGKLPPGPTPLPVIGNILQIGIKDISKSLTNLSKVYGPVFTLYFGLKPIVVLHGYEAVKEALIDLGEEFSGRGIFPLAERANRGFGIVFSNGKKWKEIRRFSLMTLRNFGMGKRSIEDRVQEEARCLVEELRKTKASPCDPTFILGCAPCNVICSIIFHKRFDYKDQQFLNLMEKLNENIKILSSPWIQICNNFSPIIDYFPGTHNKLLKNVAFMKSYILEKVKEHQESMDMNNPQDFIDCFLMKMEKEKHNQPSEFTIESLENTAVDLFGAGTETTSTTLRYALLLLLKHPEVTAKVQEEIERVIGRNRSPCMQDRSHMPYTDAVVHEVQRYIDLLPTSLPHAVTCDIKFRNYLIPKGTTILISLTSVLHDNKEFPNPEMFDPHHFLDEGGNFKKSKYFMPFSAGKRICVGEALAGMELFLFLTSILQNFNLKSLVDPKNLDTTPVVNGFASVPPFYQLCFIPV

[3] = NIH3T3 cell viability loss – ATP luminescence, mouse fibroblasts, counter-screen, dose response (AID 2010); format: functional, cell-based;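 note: cells exposed to compound for about 90 hours before reading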
[4] = Trypanosoma cruzi growth suppression in host cells – NIH3T3 host cells, beta-gal luminescence, confirmation (AID 2044); format: functional, cell-based;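 note: intracellular parasites grown in NIH/3T3 mouse fibroblasts as host cells; luminescent beta-galactosidase reporter signal from transgenic T. cruzi replicating inside host cells; inhibitors lower the luminescence signal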
Cytochrome P450 1A2 = molecular target: T2, Cytochrome P450 1A2 (Homo sapiens, UniProt P05177);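 note: PubChem cytochrome P450 panel assay, CYP1A2 panel member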
T2 sequence (P05177 whole entry): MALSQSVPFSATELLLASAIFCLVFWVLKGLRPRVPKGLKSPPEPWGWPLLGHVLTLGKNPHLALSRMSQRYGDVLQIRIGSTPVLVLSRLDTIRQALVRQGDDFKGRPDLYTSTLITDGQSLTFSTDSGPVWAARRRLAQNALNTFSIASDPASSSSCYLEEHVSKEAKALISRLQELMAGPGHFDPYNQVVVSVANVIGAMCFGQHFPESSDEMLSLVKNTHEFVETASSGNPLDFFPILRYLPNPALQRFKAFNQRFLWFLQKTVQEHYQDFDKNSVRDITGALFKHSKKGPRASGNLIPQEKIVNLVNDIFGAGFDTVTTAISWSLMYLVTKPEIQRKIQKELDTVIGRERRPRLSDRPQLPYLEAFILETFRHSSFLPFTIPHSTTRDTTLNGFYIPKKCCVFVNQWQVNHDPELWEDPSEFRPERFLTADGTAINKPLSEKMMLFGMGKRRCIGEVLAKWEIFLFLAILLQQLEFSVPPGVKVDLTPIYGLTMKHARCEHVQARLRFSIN

Cytochrome P450 2C19 = Cytochrome P450 2C19 (Homo sapiens, UniProt P33261); assay: Cytochrome panel assay with activity outcomes. Panel member name: p450-cyp2c19 Compounds with AC50 equal or less than 10 uM are considered active; format: functional; settings: read-out: AC50
Chain of Cytochrome P450 2C19 (P33261 whole entry): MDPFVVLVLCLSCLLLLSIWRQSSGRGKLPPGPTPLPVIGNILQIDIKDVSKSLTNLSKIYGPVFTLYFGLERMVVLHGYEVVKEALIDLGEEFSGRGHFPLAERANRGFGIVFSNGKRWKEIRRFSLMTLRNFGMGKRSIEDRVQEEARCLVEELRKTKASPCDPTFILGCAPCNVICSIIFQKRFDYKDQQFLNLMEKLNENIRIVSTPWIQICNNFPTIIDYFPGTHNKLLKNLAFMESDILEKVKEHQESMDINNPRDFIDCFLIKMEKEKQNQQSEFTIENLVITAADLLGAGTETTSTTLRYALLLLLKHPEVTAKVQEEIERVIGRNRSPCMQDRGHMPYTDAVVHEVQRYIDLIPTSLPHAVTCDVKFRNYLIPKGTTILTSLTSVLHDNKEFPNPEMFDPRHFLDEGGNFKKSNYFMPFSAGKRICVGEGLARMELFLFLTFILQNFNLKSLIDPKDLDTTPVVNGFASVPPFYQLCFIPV

Cytochrome P450 3A4 = Cytochrome P450 3A4 (Homo sapiens, UniProt P08684);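 note: CYP3A4 tested as one member of a cytochrome P450 panel screen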
Chain of Cytochrome P450 3A4 (P08684 whole entry): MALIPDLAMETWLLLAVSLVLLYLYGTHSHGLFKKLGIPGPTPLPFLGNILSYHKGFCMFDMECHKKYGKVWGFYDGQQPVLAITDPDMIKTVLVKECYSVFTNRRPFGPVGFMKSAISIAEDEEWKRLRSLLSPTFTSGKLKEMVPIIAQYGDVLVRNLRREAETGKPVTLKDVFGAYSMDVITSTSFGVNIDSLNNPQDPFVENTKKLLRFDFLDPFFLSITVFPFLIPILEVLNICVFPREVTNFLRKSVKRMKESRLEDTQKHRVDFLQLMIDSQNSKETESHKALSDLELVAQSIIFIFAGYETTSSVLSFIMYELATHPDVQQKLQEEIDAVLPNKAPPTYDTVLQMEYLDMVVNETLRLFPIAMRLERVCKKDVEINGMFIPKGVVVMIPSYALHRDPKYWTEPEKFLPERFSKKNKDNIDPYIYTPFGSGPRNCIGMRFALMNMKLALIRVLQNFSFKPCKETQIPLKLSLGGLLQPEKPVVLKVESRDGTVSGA

Chain of Paired box protein Pax-8 (Q06710 whole entry): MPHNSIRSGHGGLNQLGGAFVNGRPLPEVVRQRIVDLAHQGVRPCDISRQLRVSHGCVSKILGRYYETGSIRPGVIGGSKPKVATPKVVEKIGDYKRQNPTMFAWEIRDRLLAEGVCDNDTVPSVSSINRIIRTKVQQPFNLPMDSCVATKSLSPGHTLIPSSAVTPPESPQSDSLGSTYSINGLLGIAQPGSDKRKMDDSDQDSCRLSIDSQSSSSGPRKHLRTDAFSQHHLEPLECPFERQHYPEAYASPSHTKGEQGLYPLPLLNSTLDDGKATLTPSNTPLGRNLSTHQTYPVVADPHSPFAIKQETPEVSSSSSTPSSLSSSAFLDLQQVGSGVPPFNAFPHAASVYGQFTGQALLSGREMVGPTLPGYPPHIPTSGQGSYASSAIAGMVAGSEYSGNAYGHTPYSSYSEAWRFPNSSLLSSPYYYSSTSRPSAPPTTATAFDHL

For `Cc1ccc(C)c(CSC2=NCCN2C(=O)Cc2ccc([N+](=O)[O-])cc2)c1`, the AC50 (Paired box protein Pax-8) was 26.3 µM (active).

With `CC(=O)CSc1ncnc2sc3c(c12)CCC3` the CC50 [1] was 32.7 µM (active).

In the case of `C/C=C1\COC(C(=O)NCc2ccccc2)(C(F)(F)F)C=C1C=C(C)C` (stereo unspecified), the EC50 [2] is reported as > 260 µM (inactive).

For `Fc1ccc(CCNCc2ccc(Cl)c(Cl)c2)cc1`, the AC50 (Cytochrome P450 2C9) was 17.8 µM (inconclusive), the EC50 [3] was > 30 µM (not active) and the EC50 [4] was 122 nM (active).

In the case of `Cc1ccc(C2CC(C(F)F)n3ncc(C(=O)Nc4c(C)nn(Cc5c(F)cccc5Cl)c4C)c3N2)cc1` (stereo unspecified), the CC50 [1] is reported as 19.9 µM (active).

For `O=C(CCc1ccc(S(=O)(=O)NCc2ccccc2)cc1)NCc1cccnc1`, the AC50 (Paired box protein Pax-8) was 41.5 µM (active).

In the case of `Cn1c(CNC(=O)Nc2ccccc2)nnc1SCc1ccccc1`, the AC50 (Cytochrome P450 1A2) is reported as 25.1 µM (inconclusive).

In the case of `COC(=O)CSC(C(=O)Nc1ccc(C)c(C)c1)c1ccccc1` (stereo unspecified), the AC50 (Cytochrome P450 1A2) is reported as 8.91 µM (inconclusive) and the AC50 (Cytochrome P450 2C19) is reported as 0.398 µM (inconclusive).

With `Cc1ccc(/C=C/c2nnc(-c3ccc(C)cc3)o2)cc1` the AC50 (Cytochrome P450 2C9) was 5.62 µM (inconclusive), the AC50 (Cytochrome P450 3A4) was 10 µM (inconclusive) and the AC50 (Cytochrome P450 1A2) was 4.47 µM (inconclusive).

In the case of `O=C(COC(=O)C1CCN(S(=O)(=O)c2cccc3cccnc23)CC1)c1ccc([N+](=O)[O-])cc1`, the EC50 [2] is reported as > 260 µM (inactive).

In the case of `CCN=C(S)NNC(=O)c1csc2c1CCCC2`, the CC50 [1] is reported as 17.9 µM (active).

In the case of `CC(C)Oc1cc(-n2c(=S)[nH]c3ccccc3c2=O)c(Cl)cc1Cl`, the AC50 (Cytochrome P450 1A2) is reported as 12.6 µM (inconclusive).

In the case of `Fc1ccccc1OCCCCCCN1CCCC1`, the AC50 (Cytochrome P450 2C9) is reported as 39.8 µM (inconclusive), the AC50 (Cytochrome P450 3A4) is reported as 17.8 µM (inconclusive) and the AC50 (Cytochrome P450 1A2) is reported as 17.8 µM (inconclusive). The AC50 (Cytochrome P450 2C19) was 39.8 µM (inconclusive).

For `CC(C)NC(=O)c1onc(CSc2cccc3ccccc23)c1C(=O)O`, the CC50 [1] was 12.6 µM (active).

For `COc1ccc(/C=C(\C#N)C(=O)OCC(=O)Nc2ccc(-c3nc4ccc(C)cc4s3)cc2)cc1`, the CC50 [1] was 18.6 µM (active).

In the case of `CCOC(=O)C(C)n1cnc2c(oc3ccccc32)c1=O` (stereo unspecified), the AC50 (Cytochrome P450 2C9) is reported as 28.2 µM (inconclusive) and the AC50 (Cytochrome P450 2C19) is reported as 31.6 µM (inconclusive).

In the case of `Cc1nc(SCCOc2ccc(F)cc2)c2ccccc2n1`, the EC50 [2] is reported as 38.7 µM (active).

For `COC(=O)[C@@]1(Cc2ccc(OC)cc2)[C@H]2c3cc(C(=O)N4CCCC4)n(CCN4CCOCC4)c3C[C@H]2CN1C(=O)c1ccccc1`, the AC50 (Cytochrome P450 2C9) was 31.6 µM (inconclusive) and the AC50 (Cytochrome P450 2C19) was 31.6 µM (inconclusive).

In the case of `O=C1C2CC=CCC2C(=O)N1Cc1nnc(-c2ccc(Cl)cc2)o1` (stereo unspecified), the EC50 [2] is reported as 39.1 µM (active).

In the case of `O=C(Nc1cc2c(oc1=O)CCCC2=O)c1ccc(Cl)cc1`, the AC50 (Cytochrome P450 1A2) is reported as 14.1 µM (inconclusive).

With `COc1ccc(NC(=O)N2CC[C@@]3(CCCN(C(=O)c4ccc(OC)cc4)C3)C2)cc1` the AC50 (Cytochrome P450 2C9) was 12.6 µM (inconclusive) and the AC50 (Cytochrome P450 1A2) was 25.1 µM (inconclusive).

For `COc1cccc(CNC(=O)Cn2nc(C)c([N+](=O)[O-])c2C)c1`, the EC50 [2] was > 260 µM (inactive).

For `Cc1ccc(NC2=NC(N)=NC3(CCCC3)N2)c(C)c1`, the EC50 [2] was > 260 µM (inactive).

In the case of `C=C(C)Cn1c(SCC(=O)O)nnc1-c1ccc(OC)cc1`, the EC50 [2] is reported as > 260 µM (inactive).

With `CSCCC(NS(=O)(=O)c1cccc(C(F)(F)F)c1)C(=O)N(C)CCOc1ccc(Cl)cc1` (stereo unspecified) the EC50 [2] was > 260 µM (inactive).

Reference: ChEMBL document CHEMBL1201862, “PubChem BioAssay data set” (2004)
